Columns and labels:
[1] = tested on: NAD synthesis and salvage; assay: RT-PCR of NAD synthesis and salvage pathways / NAD levels; assay type: cell-based
[2] = tested on: ARPE-19 cells; assay: SA-β-Gal cellular senescence in ARPE-19 cells in nutrient rich media (DMEM); assay type: cell-based, human; conditions: 10 nM in starvation media overnight, then DMEM 7% FCS 72 hours
Method: ARPE-19 cells in nutrient rich media (DMEM; 7% FCS) were seeded overnight prior to being replaced with starvation media (DMEM; 0.5% FCS) containing 10 nM R-DOI or 10 nM M100,907. After overnight incubation in starvation media with drug, cells were swapped to DMEM 7% FCS media for 72-hours. After the 72-hour incubation, cells were fixed and stained for SA-β-Gal for 6-hours. Cells nuclei were then stained with DAPI for total-cell enumeration. SA-β-Gal positive cells, and total cells per frame, were quantified by microscopy.

[3] = tested on: ARPE-19 cells; assay: ARPE-19 proliferation (DAPI cell number, fold change in growth); assay type: cell-based, human; conditions: ARPE-19, 72 h, R-DOI 0.1 nM or 1 nM
Method: Specific 5-HT2A Receptor Activation via Model Phenethylamines, like R-DOI. […] ARPE-19 cells were plated in nutrient rich media, DMEM, containing 7% dialyzed FCS and then starved in DMEM media containing 0.5% dialyzed FCS. Cells were then changed to 7% dialyzed FCS DMEM media containing physiolocial relevant levels of serotonin at varying concentrations and grown for 72-hours. Cell numbers were determined through DNA staining with DAPI and fold change in growth was determined from baseline readings at 24-hours. To assess if agonists of the 5HT2A receptor could enhance cell health and proliferation specifically through the 5-HT2A receptor, the model 5-HT2A receptor agonist, R-DOI was added at either 0.1 nM or 1 nM. […] Also, included is a summary of physiological serotonin and 5-HT2A receptor agonist/antagonist outcomes on cellular proliferation. This increase in proliferation promotes the formation of a compact RPE-monolayer which is important for maintaining a healthy blood-retinal barrier and can occur with low dose administration of 5-HT2A receptor agonists.
ARPE-19 cells were plated in nutrient rich media, DMEM, containing 7% dialyzed FCS and then starved in DMEM media containing 0.5% dialyzed FCS. Cells were then changed to 7% dialyzed FCS DMEM media containing physiological relevant levels of serotonin at varying concentrations and grown for 72-hours. Cell numbers were determined through DNA staining with DAPI and fold change in growth was determined from baseline readings at 24-hours. To assess if serotonin enhances cell health and proliferation specifically through the 5-HT2A receptor, the 5-HT2A receptor antagonist, M100,907 at 10 nM was included during serotonin induction.

[4] = tested on: ARPE cells; assay: Mitochondrial morphology by fluorescent microscopy in ARPE cells expressing mitochondrial red/green fluorescent protein; assay type: cell-based, human; conditions: 100 nM, 50 nM or 10 nM; 48 hours post treatment
Method: Representative 5-HT2A Receptor Agonist, R-DOI, Increases Mitochondrial Biogenesis and Quality by Inducing Mitochondrial Fusion at low nM concentrations thereby reversing adverse processes that underlie development and progression of the Pathophysiology of Age-Associated Ocular and Neurodegenerative Diseases. ARPE cells transfected with plasmids that express either a red or green fluorescent protein biomarker that marks mitochondria were plated and treated with R-DOI @100 nM, 50 nM or 10 nM. 48 hours post treatment, mitochondrial morphology was evaluated by fluorescent microscopy.
• Fluorescent dyes limit researchers to study in a static manor due to fixation. We engineered a plasmid expressing mitochondrial localized AcGFP1/dsRed2. […]

[5] = tested on: AMP kinase; assay: AMP kinase activation in treated cells; assay type: cell-based; conditions: low nM concentrations
[6] = tested on: A549 cells; assay: Cell viability after cumene peroxide oxidative stress (Hoechst / propidium iodide); assay type: cell-based
Method: A549 cells were treated with the indicated concentrations of R-DOI (panel A) or 2C-iBu (panel B) and subsequently exposed to cumene peroxide to oxidatively stress cells. Cell viability was visualized by staining with Hoescht (Blue) to mark total cells (live plus dead) and propidium iodide (red) to mark dead cells.

[7] = tested on: NRF-2; assay: Western blot of NRF-2 expression in ARPE cells after H2O2 oxidative stress; assay type: cell-based, human; conditions: 1000 nM to 1 nM overnight, then H2O2, 24 hours, lower doses highest
Method: ARPE cells were plated and treated with 10-fold dilutions of R-DOI from 1000 nM to 1 nM. Following an overnight treatment, cells were incubated with hydrogen peroxide (H2O2) to mimic an oxidative stress induced disease event. 24 hours later, cell lysates were collected and protein levels were normalized among samples and run on a western blot for comparison of NRF-2 expression relative to a cellular protein loading control, b-actin. While doses increased protective NRF-2 expression, lower doses increased NRF-2 to the highest levels, accentuating the need for appropriate dose ranges in facilitating treatment effects.

**Q.** `COc1cc(C[C@@H](C)N)c(OC)cc1I` (single isomer, unassigned) [R-DOI, R enantiomer 2,5-Dimethoxy-4-iodoamphetamine] was tested. Which “NAD levels / NAD synthesis and salvage pathways” value ([1]; higher doses) did it give?
**A.** Its value is “causes downregulation of these pathways and decreased NAD levels”.

**Q.** And the “NAD levels / NAD synthesis and salvage pathways” value ([1]; low dose)?
**A.** The value was “increases protective NAD levels”.

**Q.** And the “cellular senescence (SA-β-Gal positive cells)” value [2]?
**A.** Its value is “Decreases Basal Levels of Cellular Senescence”.

**Q.** And the “proliferation of RPE (fold change in growth)” value [3]?
**A.** Its value is “Stimulate and Restore Healthy Proliferation of RPE”.

**Q.** And the “mitochondrial biomass and morphology” value [4]?
**A.** The value was “increased mitochondrial biomass with a non-fragmented fused morphology”.

**Q.** What about the AMP kinase activation [5] of the same compound?
**A.** The AMP kinase activation was “activation of AMP kinase”.

**Q.** And the “oxidative stress-induced cell death” value [6]?
**A.** Its value is “protected cells from oxidative stress-induced cell death”.

**Q.** What about the NRF-2 expression [7] of the same compound?
**A.** The NRF-2 expression was “Increases Expression of the master regulator of antioxidant gene expression NRF-2”.

**Q.** What about the NRF-2 expression ([7]; listed as (R)-DOI) of the same compound?
**A.** The NRF-2 expression was “Upregulates Expression of NRF-2”.
